Assay results: PubChem BioAssay AID2060599 (Molecular Pharmacology Branch, DTP, NCI, 2025)
pIC50: −log10 of the molar value. Values joined by “and” are separate entries in the source; they are usually repeats but may differ in a detail not shown here. Equal entries are not always repeated. Each block holds one compound with its values, some of them ahead of it.

Test system: 817829-284-R-J1-PDC complex spheroids, viability
Test: Anticancer human tumor 817829-284-R-J1-PDC patient-derived colon adenocarcinoma cell line growth inhibition [CLK]
Settings: for viability, T/C: stronger effect = lower value
In short: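 Multi-cell-type spheroids combined patient-derived tumor cells with HUVEC endothelial cells and human mesenchymal stem cells. Paired agents were dosed in half-log steps down from about clinical Cmax, or from 10 microM where Cmax was unknown.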

[1] = curve of first compound, second compound 0.0316 µM
[2] = curve of first compound, second compound 0.1 µM
[3] = curve of first compound, second compound 0.316 µM
[4] = curve of first compound, second compound 1 µM
[5] = curve of first compound, second compound 3.16 µM
[6] = curve of first compound, second compound 10 µM
[7] = second compound 0.0316 µM, first compound 0.0316 µM
[8] = second compound 0.0316 µM, first compound 0.1 µM
[9] = second compound 0.0316 µM, first compound 0.316 µM
[10] = second compound 0.0316 µM, first compound 1 µM
[11] = second compound 0.0316 µM, first compound 3.16 µM
[12] = second compound 0.0316 µM, first compound 10 µM
[13] = second compound 0.1 µM, first compound 0.0316 µM
[14] = second compound 0.1 µM, first compound 0.1 µM
[15] = second compound 0.1 µM, first compound 0.316 µM
[16] = second compound 0.1 µM, first compound 1 µM
[17] = second compound 0.1 µM, first compound 3.16 µM
[18] = second compound 0.1 µM, first compound 10 µM
[19] = second compound 0.316 µM, first compound 0.0316 µM
[20] = second compound 0.316 µM, first compound 0.1 µM
[21] = second compound 0.316 µM, first compound 0.316 µM
[22] = second compound 0.316 µM, first compound 1 µM
[23] = second compound 0.316 µM, first compound 3.16 µM
[24] = second compound 0.316 µM, first compound 10 µM
[25] = second compound 1 µM, first compound 0.0316 µM
[26] = second compound 1 µM, first compound 0.1 µM
[27] = second compound 1 µM, first compound 0.316 µM
[28] = second compound 1 µM, first compound 1 µM
[29] = second compound 1 µM, first compound 3.16 µM
[30] = second compound 1 µM, first compound 10 µM
[31] = second compound 3.16 µM, first compound 0.0316 µM
[32] = second compound 3.16 µM, first compound 0.1 µM
[33] = second compound 3.16 µM, first compound 0.316 µM
[34] = second compound 3.16 µM, first compound 1 µM
[35] = second compound 3.16 µM, first compound 3.16 µM
[36] = second compound 3.16 µM, first compound 10 µM
[37] = second compound 10 µM, first compound 0.0316 µM
[38] = second compound 10 µM, first compound 0.1 µM
[39] = second compound 10 µM, first compound 0.316 µM
[40] = second compound 10 µM, first compound 1 µM
[41] = second compound 10 µM, first compound 3.16 µM
[42] = second compound 10 µM, first compound 10 µM
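Note: spheroids exposed to the agents for seven days before readout.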

Structure (SMILES): COc1ccc([C@@H](O)c2cc(-c3ncnc4cc(N5CCOCC5)ccc34)c(F)cc2Cl)nn1 + CN1CCN(c2cc(C(=O)Nc3cc4cc(-c5cnn(C)c5)ccc4cn3)ccn2)CC1
pIC50 [1]: 6.37 | pIC50 [2]: > 7.50 | pIC50 [3]: > 7.50 | pIC50 [4]: > 7.50 | pIC50 [5]: > 7.50 | pIC50 [6]: > 7.50 | viability, T/C [7]: 79.8% | viability, T/C [8]: 69% | viability, T/C [9]: 59.6% | viability, T/C [10]: 29.3% | viability, T/C [11]: 19.4% | viability, T/C [12]: 10.3% | viability, T/C [13]: 15.4% | viability, T/C [14]: 17.1% | viability, T/C [15]: 14.9% | viability, T/C [16]: 13% | viability, T/C [17]: 11.8% | viability, T/C [18]: 6.42% | viability, T/C [19]: 1.6% | viability, T/C [20]: 2.02% | viability, T/C [21]: 2.05% | viability, T/C [22]: 1.33% | viability, T/C [23]: 1% | viability, T/C [24]: 0.54% | viability, T/C [25]: 0.08% | viability, T/C [26]: 0.13% | viability, T/C [27]: 0.1% | viability, T/C [28]: 0.06% | viability, T/C [29]: 0.1% | viability, T/C [30]: 0.07% | viability, T/C [31]: 0.14% | viability, T/C [32]: 0.14% | viability, T/C [33]: 0.19% | viability, T/C [34]: 0.11% | viability, T/C [35]: 0.13% | viability, T/C [36]: 0.16% | viability, T/C [37]: 0.09% | viability, T/C [38]: 0.06% | viability, T/C [39]: 0.13% | viability, T/C [40]: 0.08% | viability, T/C [41]: 0.15% | viability, T/C [42]: 0.12%

Structure (SMILES): CC(=O)O[C@H]1C(=O)[C@@]2(C)[C@H]([C@H](OC(=O)c3ccccc3)[C@]3(O)C[C@H](OC(=O)[C@H](O)[C@@H](NC(=O)c4ccccc4)c4ccccc4)C(C)=C1C3(C)C)[C@]1(OC(C)=O)CO[C@@H]1C[C@@H]2O + CN1CCN(c2cc(C(=O)Nc3cc4cc(-c5cnn(C)c5)ccc4cn3)ccn2)CC1
pIC50 [1]: > 7.50 | pIC50 [2]: > 7.50 | pIC50 [3]: > 7.50 | pIC50 [4]: > 7.50 | pIC50 [5]: > 7.50 | pIC50 [6]: > 7.50 | viability, T/C [7]: 5.38% | viability, T/C [8]: 5.12% | viability, T/C [9]: 4.55% | viability, T/C [10]: 4.77% | viability, T/C [11]: 5.22% | viability, T/C [12]: 5.27% | viability, T/C [13]: 5.23% | viability, T/C [14]: 4.54% | viability, T/C [15]: 4.59% | viability, T/C [16]: 4.02% | viability, T/C [17]: 4.74% | viability, T/C [18]: 5.63% | viability, T/C [19]: 2.41% | viability, T/C [20]: 2.26% | viability, T/C [21]: 2.43% | viability, T/C [22]: 2.04% | viability, T/C [23]: 2.2% | viability, T/C [24]: 2.45% | viability, T/C [25]: 0.09% | viability, T/C [26]: 0.1% | viability, T/C [27]: 0.09% | viability, T/C [28]: 0.07% | viability, T/C [29]: 0.09% | viability, T/C [30]: 0.11% | viability, T/C [31]: 0.11% | viability, T/C [32]: 0.14% | viability, T/C [33]: 0.13% | viability, T/C [34]: 0.16% | viability, T/C [35]: 0.1% | viability, T/C [36]: 0.14% | viability, T/C [37]: 0.07% | viability, T/C [38]: 0.1% | viability, T/C [39]: 0.11% | viability, T/C [40]: 0.09% | viability, T/C [41]: 0.11% | viability, T/C [42]: 0.12%

Structure (SMILES): CC(C)CC(NC(=O)C(Cc1ccccc1)NC(=O)c1cnccn1)B(O)O (stereo not given)
viability, T/C (compound 0.000949 µM): 80.8% and 93.1% | viability, T/C (compound 0.003 µM): 4.56% and 1.33% | viability, T/C (compound 0.00949 µM): 0.1% and 0.36% | viability, T/C (compound 0.03 µM): 0.16% and 0.15% | viability, T/C (compound 0.0949 µM): 0.05% and 0.24% | viability, T/C (compound 0.3 µM): 0.08% and 0.2% | pIC50 (curve of compound): 8.82 and 8.79

Second part, led by results:

pIC50 (compound alone, run of 08/15/2023): > 7.50
Structure (SMILES): CNC(=O)c1ccc(Nc2nc(OC3CCCC3)c3c(-c4ccc5nc(C)oc5c4)c[nH]c3n2)c(OC)c1
viability, T/C (compound 0.0316 µM): 33.6% [middle of 8 runs] | viability, T/C (compound 0.1 µM): 28.2% [middle of 8 runs] | viability, T/C (compound 0.316 µM): 26.3% [middle of 8 runs] | viability, T/C (compound 1 µM): 24.2% [middle of 8 runs] | viability, T/C (compound 3.16 µM): 20.1% [middle of 8 runs] | viability, T/C (compound 10 µM): 23.3% [middle of 8 runs]

pIC50 (curve of compound): > 8.50
Structure (SMILES): CCc1c2c(nc3ccc(O)cc13)-c1cc3c(c(=O)n1C2)COC(=O)[C@]3(O)CC
viability, T/C (compound 0.00316 µM): 23.1% and 29.4% | viability, T/C (compound 0.01 µM): 17.5% and 16.5% | viability, T/C (compound 0.0316 µM): 13.9% and 16.5% | viability, T/C (compound 0.1 µM): 9.42% and 10.3% | viability, T/C (compound 0.316 µM): 6.24% and 7.57% | viability, T/C (compound 1 µM): 3.66% and 4.31%
